What all share (type): in vivo
The test system of experiment [1] is ABUTH (Abutilon theophrasti). In words: greenhouse post-emergence herbicidal test. The procedure, abridged:
(§1)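 Post-emergence greenhouse test on plants grown to 3–15 cm in loamy sand (~3.0% humus), sprayed with active ingredient suspended or emulsified in water. Plants held at 10-25 °C or 20-35 °C by species for 2 to 4 weeks, then damage scored visually 0–100 (100 = complete destruction of aerial parts, 0 = no damage).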

The subject of experiment [2] is STEME (Stellaria media). In words: greenhouse post-emergence herbicidal test. The method in brief:
as §1

Experiment [3] relates to CAPBP (Capsella bursa-pastoris). In words: greenhouse pre-emergence herbicidal test. The procedure, abridged:
(§2)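 Scores run from 0, meaning normal growth, to 100, meaning no emergence or complete destruction of aerial parts, assessed over a 2 to 4 week test period. Active ingredients in water were applied by fine nozzles directly after sowing into loamy sand with about 3.0% humus.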

Another experiment has as its system SETVI (Setaria viridis). In words: greenhouse pre-emergence herbicidal test. The procedure, abridged:
as §2

Experiment [4] concerns STEME (Stellaria media). In words: greenhouse pre-emergence herbicidal test. The procedure, abridged: as §2
The test system of experiment [5] is GERDI (Geranium dissectum). In words: greenhouse post-emergence herbicidal test. The method in brief: as §1
The test system of experiment [6] is ECHCG (Echinocloa crus-galli). In words: greenhouse post-emergence herbicidal test. The procedure, abridged: as §1
Experiment [7] relates to POLCO (Polygonum convolvulus). In words: greenhouse post-emergence herbicidal test. As to conditions: 0.062 kg/ha. The method in brief: as §1
Another experiment deals with LAMPU (Lamium purpureum). In words: greenhouse pre-emergence herbicidal test. The procedure, abridged:
as §2

The test system of experiment [8] is AMARE (Amaranthus retroflexus). In words: greenhouse post-emergence herbicidal test. The method in brief:
as §1

Experiment [9] concerns ECHCG (Echinocloa crus-galli). In words: greenhouse pre-emergence herbicidal test. The method in brief:
as §2

For experiment [10], the system named is CHEAL (Chenopodium album). In words: greenhouse post-emergence herbicidal test. To be noted: 0.125 kg/ha. The method in brief: as §1
The test system of experiment [11] is POLCO (Polygonum convolvulus). In words: greenhouse pre-emergence herbicidal test. To be noted: 1000 g/ha. The method in brief:
as §2

For the compound `CC(C)(F)c1nc(N)nc(Nc2c(F)cccc2Cl)n1` [Example 35], the herbicidal activity entry (in experiment [1] (0.062 kg/ha); in the experiment on STEME (Stellaria media) [2] (0.062 kg/ha)) was “very good (a very good herbicidal activity is given at values of at least 85)” each time.

On to `CCC(C)(F)c1nc(NC(C)=O)nc(Nc2c(F)c(F)cc(F)c2F)n1` (stereo not shown) [Example 207], for which the herbicidal activity result was “very good (a very good herbicidal activity is given at values of at least 85)” in experiment [3] (125 g/ha, CAPBP); “very good (a very good herbicidal activity is given at values of at least 85)” in the experiment with SETVI (Setaria viridis) (125 g/ha); “very good (a very good herbicidal activity is given at values of at least 85)” with STEME (Stellaria media) [4] (125 g/ha).

As to `CC(C)c1nc(N)nc(Nc2c(F)c(F)c(F)c(F)c2F)n1` [Example 7], the herbicidal activity result in experiment [1] (0.125 kg/ha) and in experiment [5] (0.125 kg/ha) was “very good (a very good herbicidal activity is given at values of at least 85)” in each case.

For `CC(C)(F)c1nc(N)nc(Nc2ccc(C(=O)O)cc2F)n1` [Example 173], the herbicidal activity result in [6] (500 g/ha) is on record as “good (a good herbicidal activity is given at values of at least 70)”.

For `CC(C)(F)c1nc(N)nc(Nc2c(F)ccc(Cl)c2F)n1` [Example 32], the herbicidal activity entry in [5] (0.062 kg/ha) and in [7] was “very good (a very good herbicidal activity is given at values of at least 85)” each time.

For the compound `CC1(c2nc(N)nc(Nc3c(F)c(F)c(F)c(F)c3F)n2)CCCCC1` [Example 88], the herbicidal activity result in [3] (125 g/ha, CAPBP) is given as “very good (a very good herbicidal activity is given at values of at least 85)”; with LAMPU (Lamium purpureum) (125 g/ha), “very good (a very good herbicidal activity is given at values of at least 85)”; in the experiment on STEME (Stellaria media) [4] (125 g/ha) it was “very good (a very good herbicidal activity is given at values of at least 85)”.

In the case of `CC(C)(C)c1nc(N)nc(Nc2c(F)c(F)c(F)c(F)c2F)n1` [Example 52], the herbicidal activity entry in [1] (0.062 kg/ha) and in experiment [5] (0.062 kg/ha) was “very good (a very good herbicidal activity is given at values of at least 85)” each time.

On to `CC(C)(F)c1nc(N)nc(Nc2c(F)c(F)cc(-c3ccccc3)c2F)n1` [Example 192], for which the herbicidal activity entry in experiment [1] (1000 g/ha), in [8] (1000 g/ha) and in experiment [6] (1000 g/ha) was “very good (a very good herbicidal activity is given at values of at least 85)” throughout.

Regarding `Nc1nc(Nc2ccc(Br)cc2F)nc(C(F)F)n1` [Example 157], the herbicidal activity result in experiment [1] (500 g/ha) and in experiment [6] (500 g/ha) was “very good (a very good herbicidal activity is given at values of at least 85)” in each case.

Consider `CC(C)(Cl)c1nc(N)nc(Nc2c(F)c(F)cc(F)c2F)n1` [Example 111], for which the herbicidal activity entry in experiment [3] (125 g/ha, CAPBP) is “very good (a very good herbicidal activity is given at values of at least 85)”; in [9] (125 g/ha), “very good (a very good herbicidal activity is given at values of at least 85)”; in the experiment on SETVI (Setaria viridis) (125 g/ha), “very good (a very good herbicidal activity is given at values of at least 85)”.

Regarding `CC(F)c1nc(N)nc(Nc2cc(F)c(F)c(F)c2)n1` (stereo not shown) [Example 16], the herbicidal activity entry in experiment [1] (0.125 kg/ha) was “good (a good herbicidal activity is given at values of at least 70)”; in the experiment on STEME (Stellaria media) [2] (0.125 kg/ha), “moderate (A moderate herbicidal activity is given at values of at least 60)”.

For `CCC(C)(F)c1nc(N)nc(Nc2c(F)c(F)c(F)c(F)c2F)n1` (stereo not shown) [Example 48], the herbicidal activity entry (in [8] (0.125 kg/ha); in the experiment on STEME (Stellaria media) [2] (0.125 kg/ha)) was “very good (a very good herbicidal activity is given at values of at least 85)” throughout.

Consider `CC(c1nc(N)nc(Nc2c(F)c(F)c(F)c(F)c2F)n1)C1CC1` (stereo not shown) [Example 63], for which the herbicidal activity result (in [9] (125 g/ha); in the experiment with SETVI (Setaria viridis) (125 g/ha); in the experiment on STEME (Stellaria media) [4] (125 g/ha)) was “very good (a very good herbicidal activity is given at values of at least 85)” in each case.

`CC(C)(Cl)c1nc(N)nc(Nc2c(F)c(F)c(F)c(F)c2F)n1` [Example 1, 6-(1-chloro-1-methyl-ethyl)-N4-(2,3,4,5,6-pentafluorophenyl)-1,3,5-triazine-2,4-diamine]: the herbicidal activity entry (in experiment [8] (0.125 kg/ha); in the experiment with STEME (Stellaria media) [2] (0.125 kg/ha)) was “very good (a very good herbicidal activity is given at values of at least 85)” each time.

Consider `CCC(C)c1nc(N)nc(Nc2c(F)c(F)c(F)c(F)c2F)n1` (stereo not shown) [Example 62], for which the herbicidal activity entry in [3] (125 g/ha, CAPBP) was “very good (a very good herbicidal activity is given at values of at least 85)”; in the experiment on SETVI (Setaria viridis) (125 g/ha), “very good (a very good herbicidal activity is given at values of at least 85)”; in the experiment with STEME (Stellaria media) [4] (125 g/ha), “very good (a very good herbicidal activity is given at values of at least 85)”.

As for `CC(C)(F)c1nc(N)nc(Nc2c(F)cc(Cl)cc2F)n1` [Example 97], the herbicidal activity result in [3] (250 g/ha, CAPBP) is on record as “good (a good herbicidal activity is given at values of at least 70)”; in the experiment with LAMPU (Lamium purpureum) (250 g/ha), “good (a good herbicidal activity is given at values of at least 70)”.

For the compound `CC(C)(F)c1nc(N)nc(Nc2c(F)c(F)cc(F)c2F)n1` [Example 2, 6-(1-Fluoro-1-methyl-ethyl)-N4-(2,3,5,6-tetrafluorophenyl)-1,3,5-triazine-2,4-diamine], the herbicidal activity result in experiment [10] and in experiment [6] (0.125 kg/ha) was “very good (a very good herbicidal activity is given at values of at least 85)” in each case.

In the case of `CC(F)(F)c1nc(N)nc(Nc2c(F)c(F)c(F)c(F)c2F)n1` [Example 9], the herbicidal activity entry in [1] (0.062 kg/ha) and in experiment [5] (0.062 kg/ha) was “very good (a very good herbicidal activity is given at values of at least 85)” throughout.

For the compound `Nc1nc(CCC(F)(F)F)nc(Nc2c(F)c(F)c(F)c(F)c2F)n1` [Example 73], the herbicidal activity result in experiment [3] (250 g/ha, CAPBP) is given as “very good (a very good herbicidal activity is given at values of at least 85)”; in the experiment on SETVI (Setaria viridis) (250 g/ha) it was “very good (a very good herbicidal activity is given at values of at least 85)”; in the experiment on STEME (Stellaria media) [4] (250 g/ha) it was “very good (a very good herbicidal activity is given at values of at least 85)”.

Regarding `CCc1nc(N)nc(Nc2c(F)c(F)c(F)c(F)c2F)n1` [Example 4], the herbicidal activity entry in [3] (0.125 kg/ha, CAPBP) is reported as “very good (a very good herbicidal activity is given at values of at least 85)”; in the experiment with LAMPU (Lamium purpureum) (0.125 kg/ha), “very good (a very good herbicidal activity is given at values of at least 85)”.

`CC(C)(F)c1nc(N)nc(Nc2c(F)ccc(F)c2F)n1` [Example 27]: the herbicidal activity entry in experiment [8] (0.062 kg/ha) and in experiment [6] (0.062 kg/ha) was “very good (a very good herbicidal activity is given at values of at least 85)” in each case.

As for `CC(C)(C)c1nc(N)nc(Nc2c(F)c(F)c(Br)c(F)c2F)n1` [Example 160], the herbicidal activity entry is on record as “very good (a very good herbicidal activity is given at values of at least 85)” in experiment [3] (125 g/ha, CAPBP); “very good (a very good herbicidal activity is given at values of at least 85)” with LAMPU (Lamium purpureum) (125 g/ha); “very good (a very good herbicidal activity is given at values of at least 85)” in the experiment on STEME (Stellaria media) [4] (125 g/ha).

For `CCC(C)(Cl)c1nc(N)nc(Nc2c(F)c(F)c(F)c(F)c2F)n1` (stereo not shown) [Example 200], the herbicidal activity result in [3] (1000 g/ha, CACBP) is “very good (a very good herbicidal activity is given at values of at least 85)”; in [9] (1000 g/ha), “very good (a very good herbicidal activity is given at values of at least 85)”; in [11] it was “very good (a very good herbicidal activity is given at values of at least 85)”.

For the compound `CCC(F)(CC)c1nc(N)nc(Nc2c(F)c(F)c(F)c(F)c2F)n1` [Example 49], the herbicidal activity result in experiment [10] and in [5] (0.125 kg/ha) was “very good (a very good herbicidal activity is given at values of at least 85)” each time.

On to `Nc1nc(Nc2c(F)c(F)c(F)c(F)c2F)nc(C2CCC2)n1` [Example 57], for which the herbicidal activity entry in experiment [8] (0.062 kg/ha) and in experiment [6] (0.062 kg/ha) was “very good (a very good herbicidal activity is given at values of at least 85)” each time.

These data come from patent publication US9549558B2, “Herbicidal azines” (BASF SE, priority 2012, dated 2017).
